Laboratory results taken from patent US20160298129A1, “ALS INHIBITOR HERBICIDE TOLERANT MUTANT PLANTS” (BAYER CROPSCIENCE NV, priority 2013, published 2016).

Key:
AHAS P197S = AHAS P197S (Arabidopsis thaliana, UniProt P17597, E575Q/P197S); assay type: biochemical
Description: (§1) Bacteria are grown at 37° C. in LB-medium containing 100 mg/l carbenicillin and 25 mg/l canamycin, induced with 1 mM isopropyl-β-D-thiogalactopyranoside at an OD600 of 0.6, cultivated for 16 hours at 18° C. and harvested by, e.g., centrifugation. Bacterial pellets are resuspended in 100 mM sodium phosphate buffer pH 7.0 containing 0.1 mM thiamine-pyrophosphate, 1 mM MgCl2, and 1 μM FAD at a concentration of 1 gram wet weight per 25 ml of buffer and disrupted by, e.g., sonification. The crude protein extract obtained after centrifugation is used for ALS activity measurements.
(§2) ALS protein can be extracted from leaves or tissue cultures, such as B. napus or B. juncea leaves, or B. napus or B. juncea tissue cultures as described by Ray (Plant Physiol, 1984, 75:827-831). An ALS assays can be carried out in 96-well microtiter plates using a modification of the procedure described by Ray (1984): The reaction mixture contains 20 mM potassium phosphate buffer pH 7.0, 20 mM sodium pyruvate, 0.45 mM thiamine-pyrophosphate, 0.45 mM MgCl2, 9 μM FAD. ALS enzyme and various concentrations of ALS inhibitors can be mixed in a final volume of 90 μl Assays can be initiated by adding enzyme and the assays can be terminated after 75 min incubation at 30° C. by the addition of 40 μl 0.5 M H2SO4.

AHAS W574L = AHAS W574L (Arabidopsis thaliana, UniProt P17597, E575Q/W574L); assay type: biochemical
Sequence of AHAS W574L (P17597 56-670 W574L/E575Q): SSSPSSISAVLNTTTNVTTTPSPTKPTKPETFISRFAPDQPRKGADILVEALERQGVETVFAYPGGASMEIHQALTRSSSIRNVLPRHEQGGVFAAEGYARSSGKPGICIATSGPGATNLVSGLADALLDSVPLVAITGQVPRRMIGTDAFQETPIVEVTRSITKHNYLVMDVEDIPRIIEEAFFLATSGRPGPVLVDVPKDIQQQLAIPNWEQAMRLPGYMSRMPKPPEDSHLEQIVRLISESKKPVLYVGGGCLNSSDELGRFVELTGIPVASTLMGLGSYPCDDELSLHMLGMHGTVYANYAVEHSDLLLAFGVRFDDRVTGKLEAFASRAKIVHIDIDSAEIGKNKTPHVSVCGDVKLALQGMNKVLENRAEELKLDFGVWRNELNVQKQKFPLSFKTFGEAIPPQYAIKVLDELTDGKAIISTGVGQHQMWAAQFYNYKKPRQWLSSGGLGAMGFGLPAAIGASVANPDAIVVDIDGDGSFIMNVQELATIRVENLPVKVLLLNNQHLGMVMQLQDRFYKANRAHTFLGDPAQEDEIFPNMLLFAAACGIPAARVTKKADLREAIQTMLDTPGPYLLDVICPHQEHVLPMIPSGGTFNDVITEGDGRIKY
Description: as §1, §2

AHAS D376E = AHAS D376E (Arabidopsis thaliana, UniProt P17597, D376E/E575Q); assay: biochemical
Sequence of AHAS D376E (P17597 56-670 D376E/E575Q): as the sequence (P17597 56-670 W574L/E575Q) above, with D321E, L519W counted along it
Description: as §1, §2

AHAS D376E-W574L = AHAS D376E-W574L (Arabidopsis thaliana, UniProt P17597, D376E/E575Q/W574L); assay: biochemical
Sequence of AHAS D376E-W574L (P17597 56-670 D376E/W574L/E575Q): as the sequence (P17597 56-670 W574L/E575Q) above, with D321E counted along it
Description: as §1, §2

AHAS P197S-D376E = AHAS P197S-D376E (Arabidopsis thaliana, UniProt P17597, D376E/E575Q/P197S); assay: biochemical
Sequence of AHAS P197S-D376E (P17597 56-670 P197S/D376E/E575Q): as the sequence (P17597 56-670 W574L/E575Q) above, with P142S, D321E, L519W counted along it
Description: as §1, §2

AHAS P197S-D376E-W574L = AHAS P197S-D376E-W574L (Arabidopsis thaliana, UniProt P17597, D376E/E575Q/P197S/W574L); assay: biochemical
Sequence of AHAS P197S-D376E-W574L (P17597 56-670 P197S/D376E/W574L/E575Q): as the sequence (P17597 56-670 W574L/E575Q) above, with P142S, D321E counted along it
Description: as §1, §2

AHAS P197S-W574L = AHAS P197S-W574L (Arabidopsis thaliana, UniProt P17597, E575Q/P197S/W574L); assay: biochemical
Sequence of AHAS P197S-W574L (P17597 56-670 P197S/W574L/E575Q): as the sequence (P17597 56-670 W574L/E575Q) above, with P142S counted along it
Description: as §1, §2

AHAS WT [1] = molecular target: AHAS WT (Arabidopsis thaliana, UniProt P17597); assay: biochemical
Sequence of AHAS WT (Arabidopsis thaliana, UniProt P17597) (P17597 56-670 E575Q): as the sequence (P17597 56-670 W574L/E575Q) above, with L519W counted along it
Description: as §1, §2

[2] = system: WT tissues (hypocotyl derived callus); assay: Callus culture on Foramsulfuron selection medium; assay type: cell-based, Brassica napus; conditions: 250 nM in M-338 [H76] medium
Description: Five day old seedlings were used for the preparation of hypocotyl segments 7-10 mm in length. Hypocotyl segments were transferred to 14 cm Petri plates containing 75 ml of M-338 [H76] callus induction medium (25 explants/plate). M-338 [H76] medium is MS salts and vitamins (Murashige and Skoog, 1962), 20 g/l sucrose, 0.5 g/l MES, 0.5 g/l adenine sulphate, 5 mg/l silver nitrate, 0.5 mg/l 2,4-D, 0.2 mg/l kinetin and solidified with 5.5 g/l agarose (pH 5.7). Dishes were sealed and cultured at 24° C. with standard light conditions (16 h/day). After 3 weeks, calli developing at the ends of the explants were transferred to fresh M-338 [H76] plates (25 calli/plate). Calli were subcultured to fresh medium every 3 weeks (larger calli cut into two pieces).
Hypocotyl derived callus (9 weeks old) was used for the selection of herbicide resistant mutants. […] Dishes were cultured at 24° C. with standard light conditions (16 h/day). After 3 weeks, the calli were divided into 2 pieces each and replated on M-338 [H76] medium containing 1.0 μM Foramsulfuron. Further increases in Foramsulfuron concentration (e.g. 1.5 μM, 2.0 μM, 2.5 μM, 3.0 μM or higher) were made each subculture until rapidly growing green (resistant) calli could clearly be identified from the brown non-resistant tissues.

AHAS WT [3] = molecular target: AHAS WT (Arabidopsis thaliana, UniProt P17597, E575Q); assay: biochemical; conditions: AHAS WT
Sequence of AHAS WT (Arabidopsis thaliana, UniProt P17597, E575Q) (P17597 56-670 E575Q): as the sequence (P17597 56-670 W574L/E575Q) above, with L519W counted along it
Description: as §1, §2

[4] = system: wild-type (WT) oilseed rape; assay: Field herbicide tolerance, visible phytotoxicity; assay type: in vivo, Brassica napus; conditions: gai/ha: imazamox 40, bispyribac-sodium 50, propoxycarbazone-sodium 70, mesosulfuron-methyl 60, pyroxsulam 12.5 + cloquintocet-mexyl 37.5, each + rapeseed oil methylated 366.5
[5] = system: oilseed rape homozygous for HETO133 and HETO134 (133-134); assay: Field herbicide tolerance, visible phytotoxicity (ALS I W574L, ALS III W574L); assay type: in vivo, Brassica napus; conditions: gai/ha: imazamox 40, bispyribac-sodium 50, propoxycarbazone-sodium 70, mesosulfuron-methyl 60, pyroxsulam 12.5 + cloquintocet-mexyl 37.5, each + rapeseed oil methylated 366.5
From the text: (§3) Seeds of spring oilseed rape homozygous for HETO139 and HETO134 were sown in a field according to typical practical agricultural methods together with seeds homozygous for HETO134 and HETO133 (comprising a W574L mutation on ALS III, which were obtained in the same way as HETO134), and with seeds homozygous for HETO134 and HETO132 (comprising a P197S and a W574L mutation on ALS III, which were obtained in essentially the same way as HETO139). Several ALS inhibitor herbicides were applied to the oilseed rape plants by using specific spray equipment for small plot applications.

[6] = system: oilseed rape homozygous for HETO132 and HETO134 (132-134); assay: Field herbicide tolerance, visible phytotoxicity (ALS I W574L, ALS III P197S-W574L); assay type: in vivo, Brassica napus; conditions: gai/ha: imazamox 40, bispyribac-sodium 50, propoxycarbazone-sodium 70, mesosulfuron-methyl 60, pyroxsulam 12.5 + cloquintocet-mexyl 37.5, each + rapeseed oil methylated 366.5
From the text: as §3

[7] = system: oilseed rape homozygous for HETO139 and HETO134 (139-134); assay: Field herbicide tolerance, visible phytotoxicity (ALS I W574L, ALS III P197S-D376E); assay type: in vivo, Brassica napus; conditions: gai/ha: imazamox 40, bispyribac-sodium 50, propoxycarbazone-sodium 70, mesosulfuron-methyl 60, pyroxsulam 12.5 + cloquintocet-mexyl 37.5, each + rapeseed oil methylated 366.5
From the text: as §3

Sequence of AHAS P197S (P17597 56-670 P197S/E575Q): as the sequence (P17597 56-670 W574L/E575Q) above, with P142S, L519W counted along it

## COc1cc(OC)nc(NC(=O)NS(=O)(=O)c2cc(NC=O)ccc2C(=O)N(C)C)n1 [Foramsulfuron, foramsulfuron]
AHAS P197S
  Resistance Factor: 12
AHAS W574L
  Resistance Factor: 5888
AHAS D376E
  IC50: 31.6 µM
AHAS D376E; AHAS D376E
  Resistance Factor: 3715
AHAS D376E-W574L
  IC50: > 100 µM
AHAS D376E-W574L; AHAS D376E-W574L
  Resistance Factor: >11748
AHAS P197S-D376E
  IC50: > 100 µM
AHAS P197S-D376E; AHAS P197S-D376E
  Resistance Factor: >11748
AHAS P197S-D376E-W574L
  IC50: > 100 µM
AHAS P197S-D376E-W574L; AHAS P197S-D376E-W574L
  Resistance Factor: >11748
AHAS P197S-W574L
  IC50: > 100 µM
AHAS P197S-W574L; AHAS P197S-W574L
  Resistance Factor: >11748
AHAS WT [1]
  IC50: 0.00794 µM
[2]
  inhibition of callus tissues: clearly inhibitory

## COc1cc(OC)n2nc(NS(=O)(=O)c3c(C(F)(F)F)ccnc3OC)nc2n1 [Pyroxsulam, pyroxsulam]
AHAS P197S
  Resistance Factor: 261
  pI50: 6.2
AHAS W574L
  Resistance Factor: >41368
  pI50: <4
AHAS D376E; AHAS D376E
  Resistance Factor: 656
  pI50: 5.8
AHAS D376E-W574L; AHAS D376E-W574L
  Resistance Factor: >41368
  pI50: <4
AHAS P197S-D376E; AHAS P197S-D376E
  Resistance Factor: >41368
  pI50: <4
AHAS P197S-D376E-W574L; AHAS P197S-D376E-W574L
  Resistance Factor: >41368
  pI50: <4
AHAS P197S-W574L; AHAS P197S-W574L
  Resistance Factor: >41368
  pI50: <4
AHAS WT [3]
  pI50: 8.6
[4]; 9 DAA
  Percentage phytotoxicity: 76.7%
[4]; 16 DAA
  Percentage phytotoxicity: 98%
[4]; 24 DAA
  Percentage phytotoxicity: 98%
[5]; 9 DAA
  Percentage phytotoxicity: 13.3%
[5]; 16 DAA
  Percentage phytotoxicity: 17%
[5]; 24 DAA
  Percentage phytotoxicity: 15%
[6]; 9 DAA
  Percentage phytotoxicity: 13.3%
[6]; 16 DAA
  Percentage phytotoxicity: 16%
[6]; 24 DAA
  Percentage phytotoxicity: 5%
[7]; 9 DAA
  Percentage phytotoxicity: 10.7%
[7]; 16 DAA
  Percentage phytotoxicity: 16%
[7]; 24 DAA
  Percentage phytotoxicity: 10.7%
